{"source": "ChEMBL document CHEMBL3046191", "about": "“Strong resistance to phosphine in the rusty grain beetle, Cryptolestes ferrugineus (Stephens) (Coleoptera: Laemophloeidae): its characterisation, a rapid assay for diagnosis and its distribution in Australia” (2013)", "key": {"Cryptolestes ferrugineus [1]": {"tested_on": "Cryptolestes ferrugineus", "test": "whole plant or invertebrate", "details": "QNCF122, 144 h", "description": "Insecticidal activity against strongly phosphine-resistant Cryptolestes ferrugineus (rusty grain beetle) QNCF122 after 144 hr by FAO method"}, "Cryptolestes ferrugineus [2]": {"tested_on": "Cryptolestes ferrugineus", "test": "Insecticidal activity against Cryptolestes ferrugineus (rusty grain beetle) Lab-S after 48 hr by FAO method"}, "Cryptolestes ferrugineus [3]": {"tested_on": "Cryptolestes ferrugineus", "test": "Insecticidal activity against phosphine-weakly resistant Cryptolestes ferrugineus (rusty grain beetle) Lab-WR after 48 hr by FAO method"}, "Cryptolestes ferrugineus [4]": {"tested_on": "Cryptolestes ferrugineus", "test": "whole plant or invertebrate", "details": "QNCF130, 144 h", "description": "Insecticidal activity against strongly phosphine-resistant Cryptolestes ferrugineus (rusty grain beetle) QNCF130 after 144 hr by FAO method"}, "Cryptolestes ferrugineus [5]": {"tested_on": "Cryptolestes ferrugineus", "test": "whole plant or invertebrate", "details": "QNCF129, 144 h", "description": "Insecticidal activity against strongly phosphine-resistant Cryptolestes ferrugineus (rusty grain beetle) QNCF129 after 144 hr by FAO method"}, "Cryptolestes ferrugineus [6]": {"tested_on": "Cryptolestes ferrugineus", "test": "Insecticidal activity against Cryptolestes ferrugineus (rusty grain beetle) Lab-S after 72 hr by FAO method"}, "Cryptolestes ferrugineus [7]": {"tested_on": "Cryptolestes ferrugineus", "test": "whole plant or invertebrate", "details": "QNCF101, 144 h", "description": "Insecticidal activity against strongly phosphine-resistant Cryptolestes ferrugineus (rusty grain beetle) QNCF101 after 144 hr by FAO method"}, "Cryptolestes ferrugineus [8]": {"tested_on": "Cryptolestes ferrugineus", "test": "whole plant or invertebrate", "details": "QNCF83, 144 h", "description": "Insecticidal activity against strongly phosphine-resistant Cryptolestes ferrugineus (rusty grain beetle) QNCF83 after 144 hr by FAO method"}, "Cryptolestes ferrugineus [9]": {"tested_on": "Cryptolestes ferrugineus", "test": "Insecticidal activity against phosphine-weakly resistant Cryptolestes ferrugineus (rusty grain beetle) Lab-WR after 72 hr by FAO method"}, "Cryptolestes ferrugineus [10]": {"tested_on": "Cryptolestes ferrugineus", "test": "whole plant or invertebrate", "details": "QNCF102, 144 h", "description": "Insecticidal activity against strongly phosphine-resistant Cryptolestes ferrugineus (rusty grain beetle) QNCF102 after 144 hr by FAO method"}, "Cryptolestes ferrugineus [11]": {"tested_on": "Cryptolestes ferrugineus", "test": "whole plant or invertebrate", "details": "Lab-S, 144 h", "description": "Insecticidal activity against Cryptolestes ferrugineus (rusty grain beetle) Lab-S after 144 hr by FAO method"}, "Cryptolestes ferrugineus [12]": {"tested_on": "Cryptolestes ferrugineus", "test": "whole plant or invertebrate", "details": "QNCF104, 144 h", "description": "Insecticidal activity against strongly phosphine-resistant Cryptolestes ferrugineus (rusty grain beetle) QNCF104 after 144 hr by FAO method"}, "Cryptolestes ferrugineus [13]": {"tested_on": "Cryptolestes ferrugineus", "test": "Insecticidal activity against phosphine-resistant Cryptolestes ferrugineus (rusty grain beetle) Lab-StR after 48 hr by FAO method"}, "Cryptolestes ferrugineus [14]": {"tested_on": "Cryptolestes ferrugineus", "test": "Insecticidal activity against phosphine-resistant Cryptolestes ferrugineus (rusty grain beetle) Lab-StR after 72 hr by FAO method"}, "Cryptolestes ferrugineus [15]": {"tested_on": "Cryptolestes ferrugineus", "test": "whole plant or invertebrate", "details": "QQCF691, 144 h", "description": "Insecticidal activity against strongly phosphine-resistant Cryptolestes ferrugineus (rusty grain beetle) QQCF691 after 144 hr by FAO method"}, "Cryptolestes ferrugineus [16]": {"tested_on": "Cryptolestes ferrugineus", "test": "whole plant or invertebrate", "details": "Lab-StR, 144 h", "description": "Insecticidal activity against phosphine-resistant Cryptolestes ferrugineus (rusty grain beetle) Lab-StR after 144 hr by FAO method"}, "Cryptolestes ferrugineus [17]": {"tested_on": "Cryptolestes ferrugineus", "test": "whole plant or invertebrate", "details": "QNCF134, 144 h", "description": "Insecticidal activity against strongly phosphine-resistant Cryptolestes ferrugineus (rusty grain beetle) QNCF134 after 144 hr by FAO method"}, "Cryptolestes ferrugineus [18]": {"tested_on": "Cryptolestes ferrugineus", "test": "whole plant or invertebrate", "details": "QNCF110, 144 h", "description": "Insecticidal activity against strongly phosphine-resistant Cryptolestes ferrugineus (rusty grain beetle) QNCF110 after 144 hr by FAO method"}, "Cryptolestes ferrugineus [19]": {"tested_on": "Cryptolestes ferrugineus", "test": "whole plant or invertebrate", "details": "Lab-WR, 144 h", "description": "Insecticidal activity against phosphine-weakly resistant Cryptolestes ferrugineus (rusty grain beetle) Lab-WR after 144 hr by FAO method"}}, "data": [{"smiles": "P", "note": "[PHOSPHINE]", "values": [{"measurement": "LC50", "setting": "Cryptolestes ferrugineus [1]", "result": 1.77, "unit": "µg/mL"}, {"measurement": "LC50", "setting": "Cryptolestes ferrugineus [2]", "result": 0.005, "unit": "µg/mL"}, {"measurement": "LC50", "setting": "Cryptolestes ferrugineus [3]", "result": 0.056, "unit": "µg/mL"}, {"measurement": "LC50", "setting": "Cryptolestes ferrugineus [4]", "result": 1.42, "unit": "µg/mL"}, {"measurement": "LC50", "setting": "Cryptolestes ferrugineus [5]", "result": 1.5, "unit": "µg/mL"}, {"measurement": "LC50", "setting": "Cryptolestes ferrugineus [6]", "result": 0.004, "unit": "µg/mL"}, {"measurement": "LC50", "setting": "Cryptolestes ferrugineus [7]", "result": 1.12, "unit": "µg/mL"}, {"measurement": "LC50", "setting": "Cryptolestes ferrugineus [8]", "result": 1.3, "unit": "µg/mL"}, {"measurement": "LC50", "setting": "Cryptolestes ferrugineus [9]", "result": 0.037, "unit": "µg/mL"}, {"measurement": "LC50", "setting": "Cryptolestes ferrugineus [10]", "result": 1.31, "unit": "µg/mL"}, {"measurement": "LC50", "setting": "Cryptolestes ferrugineus [11]", "result": 0.003, "unit": "µg/mL"}, {"measurement": "LC50", "setting": "Cryptolestes ferrugineus [12]", "result": 1.21, "unit": "µg/mL"}, {"measurement": "LC50", "setting": "Cryptolestes ferrugineus [13]", "result": 6.57, "unit": "µg/mL"}, {"measurement": "LC50", "setting": "Cryptolestes ferrugineus [14]", "result": 6.37, "unit": "µg/mL"}, {"measurement": "LC50", "setting": "Cryptolestes ferrugineus [15]", "result": 1.34, "unit": "µg/mL"}, {"measurement": "LC50", "setting": "Cryptolestes ferrugineus [16]", "result": 1.66, "unit": "µg/mL"}, {"measurement": "LC50", "setting": "Cryptolestes ferrugineus [17]", "result": 1.22, "unit": "µg/mL"}, {"measurement": "LC50", "setting": "Cryptolestes ferrugineus [18]", "result": 0.97, "unit": "µg/mL"}, {"measurement": "LC50", "setting": "Cryptolestes ferrugineus [19]", "result": 0.022, "unit": "µg/mL"}]}]}
